In patent US7858647B2, “N-[1,3,4]-thiadiazol-2-yl-benzene sulfonamides, pharmaceutical compositions thereof and methods for their therapeutic use” (Sanofi-Aventis, priority 2005, dated 2010) one finds EC50 data, which are given here for twelve compounds.

The assay deals with T1, human PPARdelta (Homo sapiens, UniProt Q03181).
T1 construct: amino acids S139-Y441; expressed in transfected cells
T1 sequence (Q03181 139-441): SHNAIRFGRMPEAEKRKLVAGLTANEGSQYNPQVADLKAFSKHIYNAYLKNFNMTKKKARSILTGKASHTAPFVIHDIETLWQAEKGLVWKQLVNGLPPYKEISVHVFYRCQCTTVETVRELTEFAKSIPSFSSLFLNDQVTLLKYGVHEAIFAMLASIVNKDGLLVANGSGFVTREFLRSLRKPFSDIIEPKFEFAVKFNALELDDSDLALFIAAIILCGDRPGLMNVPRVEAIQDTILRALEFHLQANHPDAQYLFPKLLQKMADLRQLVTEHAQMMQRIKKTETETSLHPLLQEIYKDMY
Kind of assay: Cellular PPARdelta assay (luciferase reporter, stably transfected HEK cell line). In kind it is cell-based. The following applies: GR-GAL4-humanPPARdelta-LBD. As to the method: The activity of PPARalpha agonists is determined in a 3-day assay which is described below:
The PPARalpha reporter cell line is cultivated to 80% confluence in DMEM (#41965-039, Invitrogen) which is mixed with the following additions: 10% cs-FCS (fetal calf serum; #SH-30068.03, Hyclone), 0.5 mg/ml zeocin (#R250-01, Invitrogen), 0.5 mg/ml G418 (#10131-027, Invitrogen), 1% penicillin-streptomycin solution (#15140-122, Invitrogen) and 2 mM L-glutamine (#25030-024, Invitrogen). The cultivation takes place in standard cell culture bottles (#353112, Becton Dickinson) in a cell culture incubator at 37° C. in the presence of 5% CO2. The 80%-confluent cells are washed once with 15 ml of PBS (#14190-094, Invitrogen), treated with 3 ml of trypsin solution (#25300-054, Invitrogen) at 37° C. for 2 min, taken up in 5 ml of the DMEM described and counted in a cell counter. After dilution to 500.000 cells/ml, 35,000 cells are seeded in each well of a 96 well microtiter plate with a clear plastic base (#3610, Corning Costar). The plates are incubated in the cell culture incubator at 37° C. and 5% CO2 for 24 h.
PPARalpha Agonists to be Tested are Dissolved in DMSO in a Concentration of 10 mM. This stock solution is diluted in DMEM (#41965-039, Invitrogen) which is mixed with 5% cs-FCS (#SH-30068.03, Hyclone), 2 mM L-glutamine (#25030-024, Invitrogen) and the previously described antibiotics (zeocin, G418, penicillin and streptomycin). Test substances are tested in 11 different concentrations in the range from 10 μM to 100 pM.
The medium of the PPARalpha reporter cell line seeded on day 1 is completely removed by aspiration, and the test substances diluted in medium are immediately added to the cells. The dilution and addition of the substances is carried out by a robot (Beckman FX). The final volume of the test substances diluted in medium is 100 μl per well of a 96 well microtiter plate. The DMSO concentration in the assay is less than 0.1% v/v in order to avoid cytotoxic effects of the solvent.
The assay plates are incubated in an incubator at 37° C. and 5% CO2 for 24 h.
The PPARalpha reporter cells treated with the test substances are removed from the incubator, and the medium is aspirated off. The cells are lyzed by pipetting 50 μl of Bright Glo reagent (from Promega) into each well of a 96 well microtiter plate. After incubation at room temperature in the dark for 10 minutes, the microtiter plates are measured in the luminometer (Trilux from Wallac). The measuring time for each well of a microtiter plate is 1 sec.
The raw data from the luminometer are transferred into a Microsoft Excel file. Dose-effect plots and EC50 values of PPAR agonists are calculated using the XL.Fit program as specified by the manufacturer (IDBS).
The potency of substances which bind to human PPARdelta and activate it in an agonistic manner is analyzed using a stably transfected HEK cell line (HEK=human embryo kidney) which is referred to here as PPARdelta reporter cell line. In analogy to the assay described for PPARalpha, the PPARdelta reporter cell line also contains two genetic elements, a luciferase reporter element (pdeltaM-GAL4-Luc-Zeo) and a PPARdelta fusion protein (GR-GAL4-humanPPARdelta-LBD) which mediates expression of the luciferase reporter element depending on a PPARdelta ligand. The stably and constitutively expressed fusion protein GR-GAL4-humanPPARdelta-LBD binds in the cell nucleus of the PPARdelta reporter cell line via the GAL4 protein portion to the GAL4 DNA binding motifs 5′-upstream of the luciferase reporter element which is stably integrated in the genome of the cell line. There is only little expression of the luciferase reporter gene in the absence of a PPARdelta ligand if fatty acid-depleted fetal calf serum (cs-FCS) is used in the assay. PPARdelta ligands bind and activate the PPARdelta fusion protein and thereby stimulate expression of the luciferase reporter gene. […]
A general note: A reporter such as luciferase makes a cellular process visible.

As to `CCOc1cc(C(F)(F)F)ccc1C(=O)NCC(C)c1ccc(S(=O)(=O)Nc2nnc(C(C)C)s2)cc1` (racemic) [Example 43, 2-Ethoxy-N-{2-[4-(5-isopropyl-[1,3,4]thiadiazol-2-ylsulfamoyl)-phenyl]-propyl}-4-trifluoromethyl-benzamide], a half-maximal effect (EC50) was put at 20 nM. That is a double-digit nanomolar value. The value for `CCOc1cc(C(F)(F)F)ccc1C(=O)NCC(C)c1ccc(S(=O)(=O)Nc2nnc(C(C)C)s2)cc1` (single isomer, unassigned) [Example 43a] was 40 nM. Consider `CCOc1cc(C(F)(F)F)ccc1C(=O)NCC(C)c1ccc(S(=O)(=O)Nc2nnc(C(C)C)s2)cc1` (single isomer, unassigned) [Example 43b], for which the EC50 was 20 nM. This EC50 is about 2-fold lower than that of the compound before. The value for `CCOc1cc(C(F)(F)F)ccc1C(=O)NCC(CC)c1ccc(S(=O)(=O)Nc2nnc(C(C)C)s2)cc1` (single isomer, unassigned) [Example 44a] was 40 nM; that for `CCOc1cc(C(F)(F)F)ccc1C(=O)NCC(CC)c1ccc(S(=O)(=O)Nc2nnc(C(C)C)s2)cc1` (single isomer, unassigned) [Example 44b] was 10 nM; that for `COc1cc(C(F)(F)F)ccc1C(=O)NCCc1ccc(S(=O)(=O)Nc2nnc(C(C)C)s2)cc1` [Example 1, N-{2-[4-(5-Isopropyl-[1,3,4]thiadiazol-2-ylsulfamoyl)-phenyl]-ethyl}-2-methoxy-4-trifluoromethyl-benzamide] was 110 nM.

Turning to `COc1ccc(C(C)(C)C)cc1C(=O)NCCc1ccc(S(=O)(=O)Nc2nnc(C(C)C)s2)cc1` [Example 2, 5-tert-Butyl-N-{2-[4-(5-isopropyl-[1,3,4]thiadiazol-2-ylsulfamoyl)-phenyl]-ethyl}-2-methoxy-benzamide], the EC50 amounted to 440 nM. On to `COc1ccc(C(=O)NCCc2ccc(S(=O)(=O)Nc3nnc(C(C)C)s3)cc2)c(OC)n1` [Example 5, N-{2-[4-(5-Isopropyl-[1,3,4]thiadiazol-2-ylsulfamoyl)-phenyl]-ethyl}-2,6-dimethoxy-nicotinamide], for which it took 1100 nM to reach a half-maximal effect (EC50). With `CC(C)c1nnc(NS(=O)(=O)c2ccc(CNC(=O)c3ccc(C(F)(F)F)cc3)cc2)s1` [Example 24, N-[4-(5-Isopropyl-[1,3,4]thiadiazol-2-ylsulfamoyl)-benzyl]-4-trifluoromethyl-benzamide] the figure was 760 nM. With `Cc1ccc(Cl)cc1C(=O)NCCc1ccc(S(=O)(=O)Nc2nnc(-c3ccccc3)s2)cc1` [Example 32, 5-Chloro-2-methyl-N-{2-[4-(5-phenyl-[1,3,4]thiadiazol-2-ylsulfamoyl)-phenyl]-ethyl}-benzamide] the figure was 3610 nM; with `CC(C)(C)c1nnc(NS(=O)(=O)c2ccc(CCNC(=O)c3cc(Cl)ccc3Cl)cc2)s1` [Example 35, N-{2-[4-(5-tert-Butyl-[1,3,4]thiadiazol-2-ylsulfamoyl)-phenyl]-ethyl}-2,5-dichloro-benzamide], 2800 nM.

Regarding `Cc1cc(Br)c(C(=O)NCCc2ccc(S(=O)(=O)Nc3nnc(C(C)C)s3)cc2)s1` [Example 47, 3-Bromo-5-methyl-thiophene-2-carboxylic acid {2-[4-(5-isopropyl-[1,3,4]thiadiazol-2-ylsulfamoyl)-phenyl]-ethyl}-amide], the EC50 was 60 nM.

In general, EC50 refers to the midpoint of the concentration-response curve.
